Assay results: publication PMC9276671, “A first-in-human Phase I dose-escalation trial of the novel therapeutic peptide, ALM201, demonstrates a favourable safety profile in unselected patients with ovarian cancer and other advanced solid tumours” (British Journal of Cancer, 2022)
No end group written: not given here.

Assay: Plasma pharmacokinetics of ALM201 in Phase I patients (validated LC-MS/MS, Phoenix WinNonlin)
Conditions: human, plasma, sc; for level at 3 h: day 1 cycle 1, 3 h after dosing; for Tmax: median; for Tmax / AUC(0-t) / Cmax: plasma LC-MS/MS; for AUC(0-t): AUC0-t; for AUC(0-t) / Cmax: Gmean (CV); for level at 0.25 h: day 1 cycle 1, 0.25 h after dosing; for level at 0.75 h: day 1 cycle 1, 0.75 h after dosing; for level at 4 h: day 1 cycle 1, 4 h after dosing
[1] = 40 mg, 40 mg SC, day 1 cycle 1, n = 1
[2] = 40 mg, 40 mg SC, day 3 cycle 1, n = 1
[3] = 40 mg, 40 mg SC, day 18 cycle 1, n = 1
[4] = 40 mg, 40 mg SC, day 18 cycle 2, n = 1
[5] = 40 mg, Plasma concentration, geometric mean (CV%), 40 mg SC, n = 1, LC-MS/MS
[6] = 80 mg, 80 mg SC, day 1 cycle 1, n = 3
[7] = 80 mg, 80 mg SC, day 3 cycle 1, n = 3
[8] = 80 mg, 80 mg SC, day 18 cycle 1, n = 2, CV not calculated
[9] = 80 mg, 80 mg SC, day 18 cycle 2, n = 1
[10] = 80 mg, Plasma concentration, geometric mean (CV%), 80 mg SC, n = 3, LC-MS/MS

With IRQQPRDPPTETLELEVSPDPAS [ALM201] the level at 1.5 h (20 mg, Plasma concentration, geometric mean (CV%), 20 mg SC, day 1 cycle 1, 1.5 h after dosing, n = 1, LC-MS/MS) was 542 ng/mL, the level at 2 h (20 mg, Plasma concentration, geometric mean (CV%), 20 mg SC, day 1 cycle 1, 2 h after dosing, n = 1, LC-MS/MS) was 417 ng/mL and the level at 3 h (20 mg, Plasma concentration, geometric mean (CV%), 20 mg SC, n = 1, LC-MS/MS) was 224 ng/mL. It also gave a level at 0.5 h (20 mg, Plasma concentration, geometric mean (CV%), 20 mg SC, day 3 cycle 1, 0.5 h after dosing, n = 1, LC-MS/MS) of 210 ng/mL, a level at 1 h (20 mg, Plasma concentration, geometric mean (CV%), 20 mg SC, day 3 cycle 1, 1 h after dosing, n = 1, LC-MS/MS) of 614 ng/mL and a level at 1.5 h (20 mg, Plasma concentration, geometric mean (CV%), 20 mg SC, day 3 cycle 1, 1.5 h after dosing, n = 1, LC-MS/MS) of 532 ng/mL. It also gave a level at 2 h (20 mg, Plasma concentration, geometric mean (CV%), 20 mg SC, day 3 cycle 1, 2 h after dosing, n = 1, LC-MS/MS) of 377 ng/mL, a level at 3.5 h (20 mg, Plasma concentration, geometric mean (CV%), 20 mg SC, day 3 cycle 1, 3.5 h after dosing, n = 1, LC-MS/MS) of 134 ng/mL and a level at 0.5 h (20 mg, Plasma concentration, geometric mean (CV%), 20 mg SC, day 18 cycle 1, 0.5 h after dosing, n = 1, LC-MS/MS) of 194 ng/mL. The level at 1 h (20 mg, Plasma concentration, geometric mean (CV%), 20 mg SC, day 18 cycle 1, 1 h after dosing, n = 1, LC-MS/MS) was 319 ng/mL, the level at 1.5 h (20 mg, Plasma concentration, geometric mean (CV%), 20 mg SC, day 18 cycle 1, 1.5 h after dosing, n = 1, LC-MS/MS) was 314 ng/mL and the level at 2 h (20 mg, Plasma concentration, geometric mean (CV%), 20 mg SC, day 18 cycle 1, 2 h after dosing, n = 1, LC-MS/MS) was 224 ng/mL. The level at 3.5 h (20 mg, Plasma concentration, geometric mean (CV%), 20 mg SC, day 18 cycle 1, 3.5 h after dosing, n = 1, LC-MS/MS) was 113 ng/mL, the level at 0.5 h (20 mg, Plasma concentration, geometric mean (CV%), 20 mg SC, day 18 cycle 2, 0.5 h after dosing, n = 1, LC-MS/MS) was 279 ng/mL and the level at 1 h (20 mg, Plasma concentration, geometric mean (CV%), 20 mg SC, day 18 cycle 2, 1 h after dosing, n = 1, LC-MS/MS) was 394 ng/mL. It also gave a level at 1.5 h (20 mg, Plasma concentration, geometric mean (CV%), 20 mg SC, day 18 cycle 2, 1.5 h after dosing, n = 1, LC-MS/MS) of 352 ng/mL, a level at 2 h (20 mg, Plasma concentration, geometric mean (CV%), 20 mg SC, day 18 cycle 2, 2 h after dosing, n = 1, LC-MS/MS) of 386 ng/mL and a level at 3.5 h (20 mg, Plasma concentration, geometric mean (CV%), 20 mg SC, day 18 cycle 2, 3.5 h after dosing, n = 1, LC-MS/MS) of 162 ng/mL. It also gave a Tmax (20 mg, 20 mg SC, day 1 cycle 1, n = 1) of 1.5 h, a Tmax (20 mg, 20 mg SC, day 3 cycle 1, n = 1) of 1 h and a Tmax (20 mg, 20 mg SC, day 18 cycle 1, n = 1) of 1.02 h. For the same sequence, the AUC(0-t) [1] was 1920 ng·h/mL, the AUC(0-t) [2] was 898 ng·h/mL and the AUC(0-t) [3] was 1840 ng·h/mL. The AUC(0-t) [4] was 1950 ng·h/mL, the Cmax [1] was 592 ng/mL and the Cmax [2] was 759 ng/mL. It also gave a Cmax [3] of 405 ng/mL, a level at 0.25 h [5] of 316 ng/mL and a level at 0.75 h [5] of 556 ng/mL. It also gave a level at 1.5 h (40 mg, Plasma concentration, geometric mean (CV%), 40 mg SC, day 1 cycle 1, 1.5 h after dosing, n = 1, LC-MS/MS) of 592 ng/mL, a level at 2 h (40 mg, Plasma concentration, geometric mean (CV%), 40 mg SC, day 1 cycle 1, 2 h after dosing, n = 1, LC-MS/MS) of 540 ng/mL and a level at 3 h [5] of 368 ng/mL. It also gave a level at 4 h [5] of 223 ng/mL, a level at 5 h (40 mg, Plasma concentration, geometric mean (CV%), 40 mg SC, day 1 cycle 1, 5 h after dosing, n = 1, LC-MS/MS) of 158 ng/mL and a level at 0.5 h (40 mg, Plasma concentration, geometric mean (CV%), 40 mg SC, day 3 cycle 1, 0.5 h after dosing, n = 1, LC-MS/MS) of 264 ng/mL. The level at 1 h (40 mg, Plasma concentration, geometric mean (CV%), 40 mg SC, day 3 cycle 1, 1 h after dosing, n = 1, LC-MS/MS) was 444 ng/mL, the level at 1.5 h (40 mg, Plasma concentration, geometric mean (CV%), 40 mg SC, day 3 cycle 1, 1.5 h after dosing, n = 1, LC-MS/MS) was 759 ng/mL and the level at 2 h (40 mg, Plasma concentration, geometric mean (CV%), 40 mg SC, day 3 cycle 1, 2 h after dosing, n = 1, LC-MS/MS) was 656 ng/mL. It also gave a level at 0.5 h (40 mg, Plasma concentration, geometric mean (CV%), 40 mg SC, day 18 cycle 1, 0.5 h after dosing, n = 1, LC-MS/MS) of 348 ng/mL, a level at 1 h (40 mg, Plasma concentration, geometric mean (CV%), 40 mg SC, day 18 cycle 1, 1 h after dosing, n = 1, LC-MS/MS) of 405 ng/mL and a level at 1.5 h (40 mg, Plasma concentration, geometric mean (CV%), 40 mg SC, day 18 cycle 1, 1.5 h after dosing, n = 1, LC-MS/MS) of 397 ng/mL. It also gave a level at 2 h (40 mg, Plasma concentration, geometric mean (CV%), 40 mg SC, day 18 cycle 1, 2 h after dosing, n = 1, LC-MS/MS) of 368 ng/mL, a level at 3.5 h (40 mg, Plasma concentration, geometric mean (CV%), 40 mg SC, day 18 cycle 1, 3.5 h after dosing, n = 1, LC-MS/MS) of 377 ng/mL and a level at 5 h (40 mg, Plasma concentration, geometric mean (CV%), 40 mg SC, day 18 cycle 1, 5 h after dosing, n = 1, LC-MS/MS) of 113 ng/mL. It also gave a level at 0.5 h (40 mg, Plasma concentration, geometric mean (CV%), 40 mg SC, day 18 cycle 2, 0.5 h after dosing, n = 1, LC-MS/MS) of 384 ng/mL, a level at 1 h (40 mg, Plasma concentration, geometric mean (CV%), 40 mg SC, day 18 cycle 2, 1 h after dosing, n = 1, LC-MS/MS) of 583 ng/mL and a level at 1.5 h (40 mg, Plasma concentration, geometric mean (CV%), 40 mg SC, day 18 cycle 2, 1.5 h after dosing, n = 1, LC-MS/MS) of 565 ng/mL. It also gave a level at 2 h (40 mg, Plasma concentration, geometric mean (CV%), 40 mg SC, day 18 cycle 2, 2 h after dosing, n = 1, LC-MS/MS) of 571 ng/mL, a level at 3.5 h (40 mg, Plasma concentration, geometric mean (CV%), 40 mg SC, day 18 cycle 2, 3.5 h after dosing, n = 1, LC-MS/MS) of 347 ng/mL and a Tmax [1] of 1.63 h. The Tmax [2] was 1.5 h, the Tmax [3] was 1 h and the Tmax [4] was 1.03 h. The AUC(0-t) [6] was 3380 ng·h/mL, the AUC(0-t) [7] was 2970 ng·h/mL and the AUC(0-t) [8] was 3500 ng·h/mL. It also gave an AUC(0-t) [9] of 3230 ng·h/mL, a Cmax [6] of 835 ng/mL and a Cmax [7] of 861 ng/mL. The Cmax [8] was 1090 ng/mL, the Cmax [9] was 849 ng/mL and the level at 0.25 h [10] was 292 ng/mL. The level at 0.75 h [10] was 700 ng/mL, the level at 1.5 h (80 mg, Plasma concentration, geometric mean (CV%), 80 mg SC, day 1 cycle 1, 1.5 h after dosing, n = 3, LC-MS/MS) was 800 ng/mL and the level at 2 h (80 mg, Plasma concentration, geometric mean (CV%), 80 mg SC, day 1 cycle 1, 2 h after dosing, n = 3, LC-MS/MS) was 727 ng/mL. The level at 3 h [10] was 689 ng/mL, the level at 4 h [10] was 556 ng/mL and the level at 5 h (80 mg, Plasma concentration, geometric mean (CV%), 80 mg SC, day 1 cycle 1, 5 h after dosing, n = 3, LC-MS/MS) was 359 ng/mL. It also gave a level at 6 h (80 mg, Plasma concentration, geometric mean (CV%), 80 mg SC, day 1 cycle 1, 6 h after dosing, n = 3, LC-MS/MS) of 248 ng/mL, a level at 0.5 h (80 mg, Plasma concentration, geometric mean (CV%), 80 mg SC, day 3 cycle 1, 0.5 h after dosing, n = 3, LC-MS/MS) of 578 ng/mL and a level at 1 h (80 mg, Plasma concentration, geometric mean (CV%), 80 mg SC, day 3 cycle 1, 1 h after dosing, n = 3, LC-MS/MS) of 684 ng/mL. It also gave a level at 1.5 h (80 mg, Plasma concentration, geometric mean (CV%), 80 mg SC, day 3 cycle 1, 1.5 h after dosing, n = 3, LC-MS/MS) of 827 ng/mL, a level at 2 h (80 mg, Plasma concentration, geometric mean (CV%), 80 mg SC, day 3 cycle 1, 2 h after dosing, n = 3, LC-MS/MS) of 826 ng/mL and a level at 3.5 h (80 mg, Plasma concentration, geometric mean (CV%), 80 mg SC, day 3 cycle 1, 3.5 h after dosing, n = 3, LC-MS/MS) of 524 ng/mL. For the same sequence, the level at 5 h (80 mg, Plasma concentration, geometric mean (CV%), 80 mg SC, day 3 cycle 1, 5 h after dosing, n = 3, LC-MS/MS) was 325 ng/mL, the level at 0.5 h (80 mg, Plasma concentration, geometric mean (CV%), 80 mg SC, day 18 cycle 1, 0.5 h after dosing, n = 2, LC-MS/MS) was 769 ng/mL and the level at 1 h (80 mg, Plasma concentration, geometric mean (CV%), 80 mg SC, day 18 cycle 1, 1 h after dosing, n = 2, LC-MS/MS) was 946 ng/mL. It also gave a level at 1.5 h (80 mg, Plasma concentration, geometric mean (CV%), 80 mg SC, day 18 cycle 1, 1.5 h after dosing, n = 2, LC-MS/MS) of 884 ng/mL, a level at 2 h (80 mg, Plasma concentration, geometric mean (CV%), 80 mg SC, day 18 cycle 1, 2 h after dosing, n = 2, LC-MS/MS) of 1060 ng/mL and a level at 3.5 h (80 mg, Plasma concentration, geometric mean (CV%), 80 mg SC, day 18 cycle 1, 3.5 h after dosing, n = 2, LC-MS/MS) of 545 ng/mL. For the same sequence, the level at 5 h (80 mg, Plasma concentration, geometric mean (CV%), 80 mg SC, day 18 cycle 1, 5 h after dosing, n = 2, LC-MS/MS) was 407 ng/mL, the level at 0.5 h (80 mg, Plasma concentration, geometric mean (CV%), 80 mg SC, day 18 cycle 2, 0.5 h after dosing, n = 1, LC-MS/MS) was 394 ng/mL and the level at 1 h (80 mg, Plasma concentration, geometric mean (CV%), 80 mg SC, day 18 cycle 2, 1 h after dosing, n = 1, LC-MS/MS) was 808 ng/mL. For the same sequence, the level at 1.5 h (80 mg, Plasma concentration, geometric mean (CV%), 80 mg SC, day 18 cycle 2, 1.5 h after dosing, n = 1, LC-MS/MS) was 659 ng/mL, the level at 2 h (80 mg, Plasma concentration, geometric mean (CV%), 80 mg SC, day 18 cycle 2, 2 h after dosing, n = 1, LC-MS/MS) was 639 ng/mL and the level at 3.5 h (80 mg, Plasma concentration, geometric mean (CV%), 80 mg SC, day 18 cycle 2, 3.5 h after dosing, n = 1, LC-MS/MS) was 849 ng/mL. The Tmax [6] was 1.53 h and the Tmax (80 mg, 80 mg SC, day 18 cycle 1, n = 2) was 1.23 h.
